Experimental data reported in patent US8435978B2, “Substituted sulfonamide compounds” (Gruenenthal GmbH, priority 2006, dated 2013).

Key:
B1R receptor of the rat = molecular target: T1, B1R receptor of the rat (Rattus norvegicus, UniProt P97583); assay: Functional study on the bradykinin receptor 1 (B1R), FLIPR Ca2+ assay, rB1R cells; assay type: cell-based; conditions: CHO-K1, test substance 10 μM, agonist Des-Arg9-bradykinin 100 nM, % inhibition compared with the maximum achievable inhibition, read-out: B1R Antagonism, rat [10 μM] % Inhibition
T1 construct: host or cells: CHO K1 cells (Chinese hamster ovary), stably transfected
T1 sequence (P97583 1-337): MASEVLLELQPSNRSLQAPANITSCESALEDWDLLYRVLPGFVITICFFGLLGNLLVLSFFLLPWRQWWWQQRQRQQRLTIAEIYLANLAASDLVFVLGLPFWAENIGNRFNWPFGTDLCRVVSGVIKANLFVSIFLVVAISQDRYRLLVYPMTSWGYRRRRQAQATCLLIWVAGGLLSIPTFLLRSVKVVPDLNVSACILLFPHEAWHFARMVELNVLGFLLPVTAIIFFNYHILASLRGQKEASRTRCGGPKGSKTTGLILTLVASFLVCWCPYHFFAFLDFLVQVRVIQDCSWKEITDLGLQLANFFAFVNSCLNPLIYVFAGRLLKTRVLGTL
Procedure, shortened: (§1)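 FLIPR Ca2+ assay in recombinant CHO K1 cells (human or rat B1R), Fluo-4 dye; 10 μM compound, 10 min, then EC-level agonist per species (0.5 nM Lys-Des-Arg9-BK human / 100 nM Des-Arg9-BK rat). Output: % inhibition vs maximum.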

human B1R receptor = molecular target: T2, human B1R receptor (Homo sapiens, UniProt P46663); assay: Functional study on the bradykinin receptor 1 (B1R), FLIPR Ca2+ assay, hB1R cells; assay type: cell-based; conditions: CHO-K1, test substance 10 μM, agonist Lys-Des-Arg9-bradykinin 0.5 nM, % inhibition compared with the maximum achievable inhibition, read-out: B1R Antagonism, human [10 μM] % Inhibition
T2 construct: host or cells: CHO K1 cells (Chinese hamster ovary), stably transfected
T2 sequence (P46663 1-353): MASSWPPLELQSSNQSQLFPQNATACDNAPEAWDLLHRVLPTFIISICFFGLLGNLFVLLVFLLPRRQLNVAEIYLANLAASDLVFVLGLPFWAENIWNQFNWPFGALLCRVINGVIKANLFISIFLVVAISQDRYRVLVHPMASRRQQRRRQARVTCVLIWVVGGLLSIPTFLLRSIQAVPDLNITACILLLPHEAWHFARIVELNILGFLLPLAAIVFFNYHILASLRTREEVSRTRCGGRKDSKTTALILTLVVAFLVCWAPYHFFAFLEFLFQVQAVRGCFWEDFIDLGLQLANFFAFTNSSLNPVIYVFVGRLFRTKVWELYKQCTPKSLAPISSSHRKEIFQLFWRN
Procedure, shortened: as §1

| Structure (SMILES) | inhibition at 10 µM (B1R receptor of the rat) | inhibition at 10 µM (human B1R receptor) |
| --- | --- | --- |
| CN1CCC(N2CCN(C(=O)COCC3CCc4ccccc4N3S(=O)(=O)c3ccc4ccccc4c3)CC2)CC1 (stereo not drawn) [Example 203, 1-(4-(1-methylpiperidin-4-yl)piperazin-1-yl)-2-((1-(naphthalen-2-ylsulfonyl)-1,2,3,4-tetrahydroquinolin-2-yl)methoxy)ethanone] | 98.8% | 103% |
| COc1cc(C)c(S(=O)(=O)N2CCCCC2COCC(=O)NC(C)Cn2cccn2)c(C)c1 (stereo not drawn) [Example 426, N-(1-(1H-pyrazol-1-yl)propan-2-yl)-2-((1-(4-methoxy-2,6-dimethylphenylsulfonyl)piperidin-2-yl)methoxy)acetamide] | 94.4% | -4.95% |
| COc1cc(C)c(S(=O)(=O)N2CCCC2COCC(=O)Nc2ccc(CCc3nc4ccccc4n3C)cc2)c(C)c1 (stereo not drawn) [Example 470, 2-((1-(4-methoxy-2,6-dimethylphenylsulfonyl)pyrrolidin-2-yl)methoxy)-N-(4-(2-(1-methyl-1H-benzo[d]imidazol-2-yl)ethyl)phenyl)acetamide] | 98.1% | 92.7% |
| COc1cc(C)c(S(=O)(=O)N2CCCC2COCC(=O)NCc2ccc(CN3CCN(C)CC3)cc2)c(C)c1 (stereo not drawn) [Example 40, 2-[1-(4-methoxy-2,6-dimethyl-phenylsulfonyl)-pyrrolidin-2-ylmethoxy]-N-[4-(4-methyl-piperazin-1-ylmethyl)-benzyl]-acetamide] | 88.7% | 72.7% |
| COc1cc(C)c(S(=O)(=O)N2CCCCC2COCC(=O)Nc2ccc(CCc3nc4ccccc4n3C)cc2)c(C)c1 (stereo not drawn) [Example 417, 2-((1-(4-methoxy-2,6-dimethylphenylsulfonyl)piperidin-2-yl)methoxy)-N-(4-(2-(1-methyl-1H-benzo[d]imidazol-2-yl)ethyl)phenyl)acetamide] | 103% | 96.2% |
| O=C(COCC1CCCCN1S(=O)(=O)c1c(Cl)cc(Cl)cc1Cl)NCc1ccc(N2CCOCC2)cc1 (stereo not drawn) [Example 581, N-(4-morpholinobenzyl)-2-((1-(2,4,6-trichlorophenylsulfonyl)piperidin-2-yl)methoxy)acetamide] | 76.3% | 27.5% |
| O=C(COCC1Cc2ccccc2CN1S(=O)(=O)c1ccc(Cl)cc1Cl)N1CCCN(Cc2ccccc2)CC1 (stereo not drawn) [Example 79, 1-(4-benzyl-[1,4]diazepan-1-yl)-2-[2-(2,4-dichloro-phenylsulfonyl)-1,2,3,4-tetra-hydro-isoquinolin-3-ylmethoxy]-ethanone] | 54.5% | 45.5% |
| O=C(COCC1CCCN1S(=O)(=O)c1c(Cl)cccc1Cl)N1CCN(CCc2ccccc2)CC1 (stereo not drawn) [Example 326, 2-((1-(2,6-dichlorophenylsulfonyl)pyrrolidin-2-yl)methoxy)-1-(4-phenethylpiperazin-1-yl)ethanone] | 101% | 104% |
| COc1cc(C)c(S(=O)(=O)N2CCCCC2COCC(=O)NCC2CCN(Cc3ccccc3)C2)c(C)c1 (stereo not drawn) [Example 414, N-((1-benzylpyrrolidin-3-yl)methyl)-2-((1-(4-methoxy-2,6-dimethylphenylsulfonyl)piperidin-2-yl)methoxy)acetamide] | 100% | 101% |
| O=C(COCC1CCCN1S(=O)(=O)c1c(Cl)cccc1Cl)N1CCCCC1Cc1ccncc1 (stereo not drawn) [Example 453, 2-((1-(2,6-dichlorophenylsulfonyl)pyrrolidin-2-yl)methoxy)-1-(2-(pyridin-4-ylmethyl)piperidin-1-yl)ethanone] | 74.4% | 40.5% |
| COc1cc(C)c(S(=O)(=O)N2CCCCC2COCC(=O)Nc2ccc(Cn3ccnc3)cc2)c(C)c1 (stereo not drawn) [Example 420, N-(4-((1H-imidazol-1-yl)methyl)phenyl)-2-((1-(4-methoxy-2,6-dimethylphenylsulfonyl)piperidin-2-yl)methoxy)acetamide] | 92% | 100% |
| CN(CCC1CCC(N2CCCC2)CC1)C(=O)COCC1CCc2ccccc2N1S(=O)(=O)c1ccc(Cl)c(Cl)c1 (stereo not drawn) [Example 216, 2-((1-(3,4-dichlorophenylsulfonyl)-1,2,3,4-tetrahydroquinolin-2-yl)methoxy)-N-methyl-N-(2-(4-(pyrrolidin-1-yl)cyclohexyl)ethyl)acetamide] | 4.48% | -10.1% |

The next lines start with the values.

| inhibition at 10 µM (B1R receptor of the rat) | inhibition at 10 µM (human B1R receptor) | Structure (SMILES) |
| --- | --- | --- |
| 99.5% | 14.3% | COc1cc(C)c(S(=O)(=O)N2CCCCC2COCC(=O)Nc2cccc(N3CCCCC3)c2)c(C)c1 (stereo not drawn) [Example 429, 2-((1-(4-methoxy-2,6-dimethylphenylsulfonyl)piperidin-2-yl)methoxy)-N-(3-(piperidin-1-yl)phenyl)acetamide] |
| 80.5% | 55% | Cc1cc(C)c(S(=O)(=O)N2Cc3ccccc3CC2COCC(=O)N2CCCN(Cc3ccccc3)CC2)c(C)c1 (stereo not drawn) [Example 67, 1-(4-benzyl-[1,4]diazepan-1-yl)-2-[2-(2,4,6-trimethyl-phenylsulfonyl)-1,2,3,4-tetrahydro-isoquinolin-3-ylmethoxy]-ethanone] |
| 99.4% | 101% | COc1cc(C)c(S(=O)(=O)N2CCCC2COCC(=O)N2CCN(c3ccccc3F)CC2)c(C)c1 (stereo not drawn) [Example 516, 1-(4-(2-fluorophenyl)piperazin-1-yl)-2-((1-(4-methoxy-2,6-dimethylphenylsulfonyl)pyrrolidin-2-yl)methoxy)ethanone] |
| 102% | 52.7% | O=C(COCC1CCCCN1S(=O)(=O)c1c(Cl)cccc1Cl)N1CCN(c2ncc(Cl)cc2Cl)CC1 (stereo not drawn) [Example 551, 2-((1-(2,6-dichlorophenylsulfonyl)piperidin-2-yl)methoxy)-1-(4-(3,5-dichloropyridin-2-yl)piperazin-1-yl)ethanone] |
| 102% | 90.4% | COc1cc(C)c(S(=O)(=O)N2CCCC2COCC(=O)N2CCCCCC2c2ccc(N(C)C)cc2)c(C)c1 (stereo not drawn) [Example 475, 1-(2-(4-(dimethylamino)phenyl)azepan-1-yl)-2-((1-(4-methoxy-2,6-dimethylphenylsulfonyl)pyrrolidin-2-yl)methoxy)ethanone] |
| 98.8% | 102% | COc1cc(C)c(S(=O)(=O)N2CCCC2COCC(=O)N2CCN(c3cccc(C(F)(F)F)c3)CC2)c(C)c1 (stereo not drawn) [Example 465, 2-((1-(4-methoxy-2,6-dimethylphenylsulfonyl)pyrrolidin-2-yl)methoxy)-1-(4-(3-(trifluoromethyl)phenyl)piperazin-1-yl)ethanone] |
| 84.1% | 104% | Cc1cc(C)c(S(=O)(=O)N2CCCCC2COCC(=O)N2CCC(N3CCCCC3)CC2)c(C)c1 (stereo not drawn) [Example 225, 1-(1,4′-bipiperidin-1′-yl)-2-((1-(mesitylsulfonyl)piperidin-2-yl)methoxy)ethanone] |
| 92.4% | 104% | CC(C)N(CCN1CCN(C(=O)COCC2CCCCN2S(=O)(=O)c2c(Cl)cccc2Cl)CC1)C(C)C (stereo not drawn) [Example 281, 2-((1-(2,6-dichlorophenylsulfonyl)piperidin-2-yl)methoxy)-1-(4-(2-(diisopropylamino)ethyl)piperazin-1-yl)ethanone] |
| 101% | 104% | COc1cc(C)c(S(=O)(=O)N2CCCCC2COCC(=O)NCc2ccc(N3CCN(C)CC3)cc2)c(C)c1 (stereo not drawn) [Example 434, 2-((1-(4-methoxy-2,6-dimethylphenylsulfonyl)piperidin-2-yl)methoxy)-N-(4-(4-methylpiperazin-1-yl)benzyl)acetamide] |
| 99.9% | 104% | COc1cc(C)c(S(=O)(=O)N2CCCCC2COCC(=O)N(C)CCC2CCC(N(C)C)CC2)c(C)c1 (stereo not drawn) [Example 209, N-(2-(4-(dimethylamino)cyclohexyl)ethyl)-2-((1-(4-methoxy-2,6-dimethylphenylsulfonyl)piperidin-2-yl)methoxy)-N-methylacetamide] |
| 101% | 105% | COc1ccc(N2CCN(C(=O)COCC3CCCN3S(=O)(=O)c3c(C)cc(OC)cc3C)CC2)cc1 (stereo not drawn) [Example 308, 2-((1-(4-methoxy-2,6-dimethylphenylsulfonyl)pyrrolidin-2-yl)methoxy)-1-(4-(4-methoxyphenyl)piperazin-1-yl)ethanone] |
| 101% | 100% | COc1cc(C)c(S(=O)(=O)N2CCCCC2COCC(=O)Nc2ccc(CN3CCCCC3)cc2)c(C)c1 (stereo not drawn) [Example 419, 2-((1-(4-methoxy-2,6-dimethylphenylsulfonyl)piperidin-2-yl)methoxy)-N-(4-(piperidin-1-ylmethyl)phenyl)acetamide] |
